Ends that are not written are not given here.

Here are results for 8 compounds from patent US10525100B2, “ATF5 peptide variants and uses thereof” (Sapience Therapeutics, Inc., priority 2018, dated 2020).

The test system of data set [1] is wide range of tumor cell types. Kind of data set: Cytotoxic activity in various human cancer cell lines. In kind it is cell-based. To be noted: in words; FIGS. 6A-6E, 7A-7E. The procedure: ST-13 was further examined in various human cancer cell lines, as was a second retro-inverso variant, ST-14. Suspension cells (HL60, AML14, or SET2) were set at a density of 3.5×10^3 cells/well in 150 μL of RPMI+1.5% fetal bovine serum (FBS) in a tissue culture-treated 96 well dish. ATF5 peptide, reconstituted at a concentration of 10 mg/mL in 20 mM His, pH 7.5, was added to each well at a volume of 50 μL to a final concentration range of 0-80 μM. Cells were incubated with peptide for 48 hours at 37° C. Cell viability was quantified by flow cytometry using an Abcam Annexin V FITC apoptosis detection kit. […] Cells were analyzed by BD Accuri C6 Plus flow cytometer to detect Annexin V-FITC binding (Ex=488 nm; Em=530 nm) using FITC signal detector, and to detect PI staining using the phycoerythrin emission signal detector. Percentage of Annexin V^low and PI^low were quantified and presented as % Viability. EC50 values were calculated using GraphPad Prism v.7 XML. […] Cell viability was determined as described above for suspension cells or by MTT assay (MCF7 cells). Alternatively, cells were gently removed from the cell culture plate following trypsinization with 2.5% trypsin, and cell viability was quantified by flow cytometry using an Abcam Annexin V FITC apoptosis detection kit, as described above.

For data set [2], the system named is HL60 cells. Kind of data set: HL60 cell viability assay (Annexin V FITC / PI flow cytometry). In kind it is cell-based, human. Particulars: for EC50: 48 h; for cytotoxic activity compared with another peptide: HL60 cell viability, FIGS. 2-5, in words. The procedure:
HL60 PML suspension cells were set at a density of 3.5×10^3 cells/well in 150 μL of RPMI+1.5% fetal bovine serum (FBS) in a 96 well dish. ST-3, reconstituted at a concentration of 10 mg/mL in 20 mM His, pH 7.5, was added to each well at a volume of 50 μL to a final concentration range of 0-80 μM. Cells were incubated with ST-3 for 48 hours at 37° C. Cell viability was quantified by flow cytometry using an Abcam Annexin V FITC apoptosis detection kit. Briefly, cells were washed with PBS and resuspended in 1× assay buffer containing Annexin V FITC and propidium iodide (PI). Annexin V detects apoptotic cells, and PI stains dead cells. After staining, apoptotic cells show green fluorescence, dead cells show red and green fluorescence, and live cells show little or no fluorescence. Cells were selected for analysis based on forward scatter (FSC) vs. side scatter (SSC), and analyzed by BD Accuri C6 Plus flow cytometer to detect Annexin V-FITC binding (Ex=488 nm; Em=530 nm) using FITC signal detector and PI staining by the phycoerythrin emission signal detector. Percentage of Annexin V^low and PI^low were quantified and presented as % Viability.
Lyophilized ST-3 or ST-3 with glycine (ST-4) or alanine (ST-5) substituted for cysteine at amino acid position 21 was freshly reconstituted in histidine buffer to a stock solution of 5 mg/mL and added to cells at a final concentration range of 0-40 μM. Cells were incubated with ATF5 peptide for 48 hours prior to quantification of cell viability.
(§1) ST-13 was further examined in various human cancer cell lines, as was a second retro-inverso variant, ST-14. Suspension cells (HL60, AML14, or SET2) were set at a density of 3.5×10^3 cells/well in 150 μL of RPMI+1.5% fetal bovine serum (FBS) in a tissue culture-treated 96 well dish. ATF5 peptide, reconstituted at a concentration of 10 mg/mL in 20 mM His, pH 7.5, was added to each well at a volume of 50 μL to a final concentration range of 0-80 μM. Cells were incubated with peptide for 48 hours at 37° C. Cell viability was quantified by flow cytometry using an Abcam Annexin V FITC apoptosis detection kit. Briefly, cells were washed with PBS and resuspended in 1× assay buffer containing Annexin V FITC and propidium iodide (PI). Cells were analyzed by BD Accuri C6 Plus flow cytometer to detect Annexin V-FITC binding (Ex=488 nm; Em=530 nm) using FITC signal detector, and to detect PI staining using the phycoerythrin emission signal detector. Percentage of Annexin V^low and PI^low were quantified and presented as % Viability. EC50 values were calculated using GraphPad Prism v.7 XML.
(A flow cytometer gives signals particle by particle.)

Data set [3] relates to A375 cells. Type of data set: cell-based, human. The procedure: (§2) Additionally, adherent A375, MCF7, U251, DU145, U87, and A549 cells were set at a density of 3.5×10^3 cells/well in 200 μL of media on day −1. On day 0, media was removed and replenished with 150 μL of fresh media, and cells were treated with ATF5 peptide as described. Following a 48-hour incubation at 37° C., floating cells were collected, adherent cells were washed with Dulbecco's Phosphate Buffered Saline (DPBS), dissociated from the dish with 50 μL 2.5% trypsin at RT, and combined with floating cells. Cell viability was determined as described above for suspension cells or by MTT assay (MCF7 cells). Alternatively, cells were gently removed from the cell culture plate following trypsinization with 2.5% trypsin, and cell viability was quantified by flow cytometry using an Abcam Annexin V FITC apoptosis detection kit, as described above.

Data set [4] deals with AML14 cells. Type of data set: cell-based, human. The procedure:
as §1

Data set [5] concerns SET2 cells. In kind it is cell-based, human. The procedure: as §1
Data set [6] has as its system MCF7 cells. Type of data set: cell-based, human. On the procedure: as §2

As usually defined, the EC50 is the concentration that produces a half-maximal response. High values mean a need for much substance, low ones an effect from little substance. For `CC[C@@H](C)[C@@H](NC(=O)[C@@H](CCCCN)NC(=O)[C@H](NC(=O)[C@@H](Cc1c[nH]c2ccccc12)NC(=O)[C@@H](Cc1ccccc1)NC(=O)[C@@H](CCC(N)=O)NC(=O)[C@@H](CC(N)=O)NC(=O)[C@@H](CCCNC(=N)N)NC(=O)[C@@H](CCCNC(=N)N)NC(=O)[C@@H](CCSC)NC(=O)[C@@H](CCCCN)NC(=O)[C@@H](Cc1c[nH]c2ccccc12)NC(=O)[C@@H](CCCCN)NC(=O)[C@@H](CCCCN)NC(=O)[C@@H](CC(C)C)NC(=O)[C@@H](CCC(=O)O)NC(=O)CNC(=O)[C@@H](CCCNC(=N)N)NC(=O)[C@@H](C)NC(=O)[C@@H](CCC(N)=O)NC(=O)CNC(=O)[C@@H](CC(C)C)NC(=O)[C@@H](CCCNC(=N)N)NC(=O)[C@@H](C)NC(=O)[C@@H](CCC(=O)O)NC(=O)[C@@H](CC(C)C)NC(=O)[C@@H](CCCNC(=N)N)NC(=O)[C@@H](CCC(=O)O)NC(=O)[C@@H](CC(C)C)NC(=O)[C@@H](CCC(=O)O)NC(=O)[C@@H](CCC(=O)O)NC(=O)[C@@H](CCCNC(=N)N)NC(=O)[C@@H](C)NC(=O)[C@@H](CCC(=O)O)NC(=O)[C@@H](C)NC(=O)[C@H](N)C(C)C)[C@H](C)CC)C(=O)N[C@H](CCC(N)=O)C(=O)N[C@H](CCCNC(=N)N)C(=O)O` [ST-13], in data set [1], the “cytotoxic activity in tumor cell types” value is given as “significant cytotoxic activity”. For the same compound, the 50% effective concentration (EC50) in data set [2] came to 4.8 µM; in data set [3] it was 1.4 µM.
Take “RQIKIWFQNRRMKWKKLEGEAQGLEARNRELKERAESV [ST-5]”: in data set [2], the EC50 was roughly 38 µM and the “cytotoxic activity compared with another peptide” value was “attenuated but not ablated”.
For “RQIKIWFQNRRMKWKKLEGECQGLEARNRELKERAEAV [ST-6]”, in data set [2], the EC50 amounted to 11.2 µM and the “cytotoxic activity compared with another peptide” value is given as “comparable activity to ST-3”.
“RQIKIWFQNRRMKWKKLEGECQGLEARNRELKERAESV [ST-3, reference compound]”: the EC50 was 29.6 µM in data set [4], 98.2 µM in data set [5], 52.9 µM in data set [6] and 21.8 µM in data set [3].
For the compound “RQIKIWFQNRRMKWKKLEGEGQGLEARNRELKERAESV [ST-4]”, in data set [2], the EC50 was roughly 35 µM and the “cytotoxic activity compared with another peptide” value was “attenuated but not ablated”.
The like results for “RQIKIWFQNRRMKWKKLEGRAQGLRAELRELEERAEAV [ST-11]” were, in that order, 4.2 µM and “improved cytotoxic activity over ST-3”.
As to “RQIKIWFQNRRMKWKKLEGRCQGLRAELRELEERAEAV [ST-10]”, in data set [2], a half-maximal effect (EC50) was put at 2.2 µM and the “cytotoxic activity compared with another peptide” value is “comparable to that of ST-9”.
The like results for “RQIKIWFQNRRMKWKKLEGRCQGLRAENRELEERAESV [ST-9]” were, in that order, 2 µM and “significantly increased over that of ST-3”.
